Measured values taken from patent US9724309B2, “Film-form preparation and method for producing the same” (NITTO DENKO CORPORATION, priority 2010, dated 2017).

Experiment: Particle size of drug particles by electron microscope
Assay type: physicochemical
Settings: 200 particles
Protocol: The various drug particles used in the Examples and Comparative Examples were obtained passing the powder through a 32 μm, 53 μm, 90 μm sieve after pulverization, or obtained fine particles by a jet mill (product of Hosokawa Micron Group, spiral jet mill model 50AS) or a spray dryer (product of Büchi Labortechnik AG, mini spray dryer model B-290) after pulverization. The particle sizes of these drug particles were measured by electron microscope (product of Hitachi High-Technologies Corp., model TM-1000) and the 50 vol % average particle size was calculated from the measurement results of 200 particles. This value was used as the particle size index of the particles.

In order of rising “50 vol % average particle size” value:
1. COc1cc(S(=O)(=O)[O-])ccc1O.O.[K+] [Potassium guaiacolsulfonate particles A, Potassium guaiacolsulfonate]  2.1 um
2. Cn1c(=O)c2[nH]cnc2n(C)c1=O [Aminophyllin particles, Aminophyllin]  4.3 um
3. COc1cc(S(=O)(=O)[O-])ccc1O.O.[K+] [Potassium guaiacolsulfonate particles, Potassium guaiacolsulfonate]  5.0 um
4. N[C@@H](CCC(=O)N[C@@H](CS)C(=O)NCC(=O)O)C(=O)O [Glutathione (reduced form) particles, Glutathione (reduced form)]  5.3 um
5. COc1cc(S(=O)(=O)[O-])ccc1O.O.[K+] [Potassium guaiacolsulfonate particles B, Potassium guaiacolsulfonate]  40.4 um
6. COc1cc(S(=O)(=O)[O-])ccc1O.O.[K+] [Potassium guaiacolsulfonate particles C, Potassium guaiacolsulfonate]  80.4 um
